Measured values taken from the NIST ThermoML archive (doi:10.1021/je800579j).

Assay: xn = mol fraction of the nth substance listed
Settings: Liquid, Pycnometric method

Cc1ccccc1C [1,2-dimethylbenzene] + C1COCCO1
mass density [kg/m3]
Settings	288.15 K	293.15 K	298.15 K	303.15 K	308.15 K	313.15 K	318.15 K
x2 = 0	884.09	879.83	875.57	871.31	867.05	862.79	858.53
x2 = 0.0672	891.2	886.85	882.5	878.15	873.8	869.45	865.1
x2 = 0.1391	899.18	894.73	890.29	885.85	881.41	876.97	872.53
x2 = 0.2103	907.48	902.95	898.42	893.89	889.36	884.83	880.3
x2 = 0.2853	916.69	912.06	907.43	902.8	898.17	893.55	888.93
x2 = 0.3543	925.67	920.95	916.23	911.51	906.79	902.08	897.37
x2 = 0.4293	936	931.18	926.36	921.55	916.74	911.93	907.12
x2 = 0.5092	947.69	942.77	937.85	932.93	928.02	923.11	918.2
x2 = 0.581	958.89	953.86	948.83	943.81	938.79	933.77	928.75
x2 = 0.6518	970.57	965.44	960.31	955.19	950.07	944.95	939.83
x2 = 0.7248	983.38	978.14	972.9	967.66	962.43	957.2	951.97
x2 = 0.7888	995.25	989.91	984.57	979.23	973.9	968.57	963.24
x2 = 0.8595	1009.11	1003.66	998.21	992.77	987.33	981.89	976.45
x2 = 0.9298	1023.75	1018.19	1012.63	1007.08	1001.53	995.99	990.45

C1COCCO1 [1,4-dioxane] + c1ccccc1
mass density [kg/m3]
Settings	288.15 K	293.15 K	298.15 K	303.15 K	308.15 K	313.15 K	318.15 K
x1 = 0.0713	895.16	889.77	884.38	878.99	873.6	868.22	862.84
x1 = 0.1403	905.71	900.28	894.85	889.42	883.99	878.58	873.17
x1 = 0.2123	916.74	911.28	905.82	900.36	894.9	889.45	884
x1 = 0.2809	927.28	921.79	916.3	910.81	905.32	899.84	894.36
x1 = 0.3528	938.34	932.82	927.31	921.8	916.28	910.77	905.26
x1 = 0.4195	948.63	943.09	937.55	932.01	926.47	920.94	915.41
x1 = 0.5037	961.65	956.08	950.51	944.94	939.38	933.82	928.26
x1 = 0.58	973.48	967.89	962.3	956.71	951.12	945.54	939.96
x1 = 0.6504	984.43	978.82	973.21	967.6	962	956.4	950.8
x1 = 0.7197	995.23	989.61	983.99	978.37	972.75	967.13	961.52
x1 = 0.7822	1005	999.37	993.74	988.11	982.48	976.85	971.23
x1 = 0.8561	1016.58	1010.94	1005.3	999.66	994.02	988.39	982.76
x1 = 0.9287	1027.99	1022.35	1016.71	1011.07	1005.43	999.79	994.15
x1 = 1	1039.23	1033.59	1027.95	1022.32	1016.68	1011.05	1005.42

Cc1cccc(C)c1 [1,3-dimethylbenzene] + C1COCCO1
mass density [kg/m3]
Settings	288.15 K	293.15 K	298.15 K	303.15 K	308.15 K	313.15 K	318.15 K
x2 = 0	868.59	864.31	860.02	855.74	851.45	847.17	842.88
x2 = 0.0938	879.61	875.2	870.79	866.38	861.97	857.56	853.16
x2 = 0.1532	886.95	882.46	877.97	873.48	868.99	864.5	860.01
x2 = 0.2046	893.54	888.98	884.42	879.87	875.32	870.77	866.22
x2 = 0.2698	902.26	897.62	892.98	888.35	883.72	879.09	874.47
x2 = 0.3374	911.76	907.05	902.34	897.63	892.92	888.21	883.5
x2 = 0.4002	921.05	916.26	911.47	906.68	901.9	897.12	892.34
x2 = 0.4714	932.18	927.3	922.42	917.55	912.68	907.81	902.94
x2 = 0.5487	945	940.02	935.04	930.06	925.08	920.1	915.12
x2 = 0.63	959.44	954.33	949.22	944.11	939.01	933.91	928.81
x2 = 0.7182	976.23	970.98	965.73	960.49	955.25	950.01	944.77
x2 = 0.8035	993.74	988.36	982.98	977.6	972.23	966.86	961.5
x2 = 0.8708	1008.47	1002.99	997.51	992.03	986.56	981.09	975.62
x2 = 0.9324	1022.71	1017.15	1011.59	1006.03	1000.48	994.93	989.38
